Here are results for eight compounds from patent US6384074B1, “Cell growth activating composition containing compound having labdane structure” (Takasago International Corporation, priority 1998, dated 2002).

In experiment [1] the test system is B16 melanoma cells. Briefly: Melanin formation prevention test (melanin production and cell proliferation). It is filed as cell-based. The note with it: for Degree of cell proliferation: relative to ethanol control. The protocol:
B16 melanoma cells were suspended (10,000 cells/ml) in DMEM (Dulbecco's modified eagle medium) containing 10% FBS (fetal bovine serum) and 8 ml of the suspension was added to a cell culture bottle with a 25 cm^2 bottom surface area, and cultured at 37° C. in the presence of 5% carbon dioxide for 3 days. After 3 days of culture, the old medium was exchanged with 8 ml of fresh medium. 40 micro-liters of a sample solution, in which compounds of the present invention had been dissolved in ethanol to give a final concentration shown in the table, were further added thereto. As the control, ethanol only was added. After the medium change, the cells were further cultured for 3 days under the same conditions. After culture was finished, the medium was removed, and the cells were recovered by treatment with trypsin (DIFCO) and suspended in 4 ml of phosphate buffered saline (PBS) and a predetermined amount ( 1/40) of this suspension was used to measure the number of cells in a Coultar counter (Sysmex Co.) to determine the degree of cell proliferation.
The degree of cell proliferation was determined according to the following equations:
Degree of cell proliferation (%)=(number of cells in sample)/(number of cells in control)×100
The remainder of the cell suspension was centrifuged and then washed with 5% trichloroacetic acid, then with ethanol/ethyl ether (3:1 by volume), and with ethyl ether and the cells were dried, and 2N—NaOH was added thereto to dissolve (melanin in) the cells under heating at 70° C. and measured for its optical density (OD) at 420 nm. Using a calibration curve of synthetic melanin, the amount of melanin/million cells was determined from the OD and the degree of inhibition of melanin production was determined according to the following equation:
Degree of inhibition of melanin (%)=(amount of melanin in control−amount of melanin in sample)/(amount of melanin in control)×100

The subject of experiment [2] is B16 melanoma cells. Briefly: Combination test with existing tyrosinase inhibitors (method of Test Example 1). It is filed as cell-based. The note with it: alone. The protocol: B16 melanoma cells were suspended (10,000 cells/ml) in DMEM (Dulbecco's modified eagle medium) containing 10% FBS (fetal bovine serum) and 8 ml of the suspension was added to a cell culture bottle with a 25 cm^2 bottom surface area, and cultured at 37° C. in the presence of 5% carbon dioxide for 3 days. After 3 days of culture, the old medium was exchanged with 8 ml of fresh medium. 40 micro-liters of a sample solution, in which compounds of the present invention had been dissolved in ethanol to give a final concentration shown in the table, were further added thereto. As the control, ethanol only was added. After the medium change, the cells were further cultured for 3 days under the same conditions. […] Degree of cell proliferation (%)=(number of cells in sample)/(number of cells in control)×100 […] Using a calibration curve of synthetic melanin, the amount of melanin/million cells was determined from the OD and the degree of inhibition of melanin production was determined according to the following equation: Degree of inhibition of melanin (%)=(amount of melanin in control−amount of melanin in sample)/(amount of melanin in control)×100 […]

The test system of experiment [3] is mushroom-derived tyrosinase. Briefly: Mushroom tyrosinase inhibition test. Format: biochemical. The note with it: L-tyrosine substrate, 37° C. 30 minutes. The protocol: After reaction, the absorbance (OD) at a wavelength of 490 nm was measured and the degree of inhibition of tyrosinase reaction was determined according to the following equation. […] Sample: The buffer, the enzyme solution, the substrate solution and the sample solution Sample-free: The buffer, the enzyme solution and the substrate solution Blank: The buffer and the enzyme solution

The target in experiment [4] is T1, tyrosinase in B16 melanoma cells (Mus musculus, UniProt P11344).
T1 construct: the resulting supernatant was used as a crude enzyme solution; endogenous in cells; host or cells: B16 melanoma cells (Triton X100 lysate, sonicated, 11,000 G supernatant)
T1 sequence (P11344 19-533): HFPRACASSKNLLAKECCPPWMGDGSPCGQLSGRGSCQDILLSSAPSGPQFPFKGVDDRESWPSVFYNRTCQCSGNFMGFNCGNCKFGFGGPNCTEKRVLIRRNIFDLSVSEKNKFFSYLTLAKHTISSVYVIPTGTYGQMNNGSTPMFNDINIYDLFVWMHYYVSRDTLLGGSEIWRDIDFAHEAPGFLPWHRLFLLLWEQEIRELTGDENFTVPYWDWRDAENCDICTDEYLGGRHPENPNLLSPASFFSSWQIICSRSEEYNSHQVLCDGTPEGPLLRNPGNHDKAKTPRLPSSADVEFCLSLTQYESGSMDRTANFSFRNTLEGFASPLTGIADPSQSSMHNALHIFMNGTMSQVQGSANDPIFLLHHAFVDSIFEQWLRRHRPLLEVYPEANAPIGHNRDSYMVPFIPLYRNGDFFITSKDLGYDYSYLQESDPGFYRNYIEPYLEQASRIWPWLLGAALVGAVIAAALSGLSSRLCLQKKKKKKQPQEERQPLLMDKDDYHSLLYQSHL
Briefly: Test of tyrosinase inhibition in B16 melanoma cells (crude enzyme solution). The note with it: L-DOPA substrate, 37° C. 3 hours; for Degree of inhibition of tyrosinase in B16 melanoma cells: 25 ppm. It is filed as biochemical. The protocol:
B16 melanoma cells were cultured for 3 days in DMEM containing 10% FBS at 37° C. in the presence of 5% carbon dioxide. The cells proliferated after culture were recovered by treatment with trypsin, then suspended in PBS containing 0.1% Triton X100 at a density of ten million cells/ml and disrupted by sonication. The product obtained was centrifuged at 11,000 G for 20 minutes, and the resulting supernatant was used as a crude enzyme solution. Added thereto was 0.2 ml of crude enzyme solution. The mixture was preliminarily kept at 37° C. for 5 minutes, and 0.2 ml L-DOPA solution (0.5 mg/ml) was added as the substrate, and the mixture was kept at 37° C. for 3 hours.

Experiment [5] deals with Bacillus subtilis PCI 219 IFO 3134. The experiment in a line: Anti-bacterial activity test, agar medium dilution method. The following applies: Bs-1. It is filed as cell-based. As to the method: (§1) The aerobic microorganisms were examined in an agar medium dilution method and the anaerobic microorganisms were examined in a liquid medium dilution method under anaerobic culture conditions. Muller Hinton agar medium (DIFCO) was heated and dissolved and 10 ml of the medium was introduced into each test tube, sterilized and used. The sample was prepared by dissolving in ethanol and the resulting ethanol solution was diluted 2-fold serially with ethanol, and 100 micro-liters of sample solution were added to 10 ml of each dissolved agar medium, then stirred, introduced into a Petri dish of 9 cm in diameter, and solidified at room temperature. Each test microorganism in a well grown slant was inoculated via one loop of platinum into 10 ml Muller Hinton broth (DIFCO) and cultured with shaking at 27° C. for 24 hours and used as a microbial fluid. This fluid was diluted at 10^8 CFU (Colony forming unit)/ml, and 5 micro-liters of the diluted fluid were inoculated onto the agar and cultured at 37° C. overnight. Inoculation of the microorganism was conducted using microplanter MIT-P for 27 tubes test microorganisms (Sakuma Seisakusho K. K.).

The subject of experiment [6] is Corynebacterium minutissimum ATCC 23348. The description is as above. The following applies: Cm-1. Format: cell-based. The protocol: as §1
Experiment [7] has as its system Corynebacterium xerosis JCM 1324. The experiment is described as above. Format: cell-based. The note with it: Cx-2. The protocol:
as §1

Experiment [8] relates to Malassezia furfur IFO 0656. Described as above. Format: cell-based. The following applies: Mf-1. The protocol: as §1
Experiment [9] relates to Staphylococcus aureus IFO 12732. The description is as above. Format: cell-based. The note with it: Sa-3. As to the method:
as §1

The test system of experiment [10] is Staphylococcus epidermidis JCM 2414. The description is as above. Format: cell-based. The following applies: Se-1. The protocol:
as §1

In experiment [11] the test system is Staphylococcus epidermidis var. H-6. Described as above. It is filed as cell-based. The note with it: Se-2. The protocol: as §1
The subject of experiment [12] is Human-derived normal skin fibroblasts (NB1RGB). Briefly: Test of cell activating activity (fibroblast proliferation). It is filed as cell-based. The following applies: relative to ethanol control (100). As to the method:
Human-derived normal skin fibroblasts (NB1RGB: Institute of Physical and Chemical Research) were suspended into DMEM containing 10% FBS to give a concentration of 20,000 cells/ml, and 5 ml each of this cellular suspension was introduced into each of 25 cm^2 bottles, cultured at 37° C. in the presence of 5% carbon dioxide for 24 hours. To each bottle, was added 10 micro-liter (0.2%) of the ethanol solution containing the compound to give the final concentration shown in Table 8. The cells were cultured for an additional 3 days. After 3 days the old medium was discarded and 5 ml fresh medium was added, and the sample was further added thereto. After this exchange of the medium, the cells were further cultured for another 3 days. Then cells were removed with trypsin and the number of cells in each bottle was counted with a Coultar counter. Simultaneously, as the control, only ethanol was added and the NB1RGB cells were cultured and the number of cells were counted in the same manner. The number of cells in each bottle to which the sample had been added was determined as a relative value to the number (as 100) of cells in the control after cultured, and the results are shown in Table 8.

[13] abbreviates: 0.4 ppm, Table 2, combined use with arbutin.
The mark [14] stands for this setting: 0.4 ppm, Table 4, combined use with ellagic acid.

On to `OC[C@H]1O[C@@H](Oc2ccc(O)cc2)[C@H](O)[C@@H](O)[C@@H]1O` [Arbutin, reference compound], for which the “Degree of cell proliferation” value in experiment [1] (6.3 ppm) is given as 100%; in experiment [2] (0.8 ppm, Table 2, combined use with arbutin), 89%. The inhibition at 6.3 ppm in experiment [1] (Mus musculus, 72 h, 6.3 ppm, 3 days, read-out: Degree of melanin inhibition) amounted to 74%. Also, in [2] (Mus musculus, B16, 0.8 ppm, Table 2, combined use with arbutin, read-out: Degree of melanin inhibition), the inhibition at 0.8 ppm turned out to be 22%. For the same compound, the “Degree of inhibition of mushroom tyrosinase” value in experiment [3] (100 ppm) is 29%. Moreover, the inhibition at 100 ppm in [4] (100 ppm, read-out: Degree of inhibition of tyrosinase in B16 melanoma cells) turned out to be 35%.
In the case of `CC1=CCC2C(C)(C)CCCC2(C)C1CCC(C)CC(=O)O` (centres unmarked) [Compound 4, labd-7-en-15-oic acid], the “Degree of melanin inhibition” value is listed as 87% in experiment [1] (6.3 ppm, 3 days) and 28% in experiment [2] (setting [13]). The “Degree of cell proliferation” value in [1] (6.3 ppm) stood at 109%; in [2] (setting [13]), 115%. In [3] (25 ppm), the “Degree of inhibition of mushroom tyrosinase” value is on record as 0%. For the same compound, the “Degree of inhibition of tyrosinase in B16 melanoma cells” value in [4] is on record as 0%. Moreover, the MIC in [5] is recorded as 12.5 ppm; in experiment [6], 6.3 ppm; in experiment [7], 12.5 ppm; in [8] it was 6.3 ppm; in [9], 12.5 ppm; in [10], 12.5 ppm. The same compound yielded an MIC in experiment [11] of 12.5 ppm.
Consider `CCOC(=O)CC(C)CCC1C(C)=CCC2C(C)(C)CCCC12C` (centres unmarked) [Compound 6, labd-7-en-15-oic acid ethyl ester], for which the “Degree of melanin inhibition” value in [1] (6.3 ppm, 3 days) was 74%. Also, the “Degree of cell proliferation” value in experiment [1] (6.3 ppm) is 109%. In addition, in [12] (8.0 ppm), the “Degree of cell proliferation of fibroblasts” value (“Degree … of fibroblasts” for short) came out at 134%.
For the compound `O=c1oc2c(O)c(O)cc3c(=O)oc4c(O)c(O)cc1c4c23` [Ellagic acid, reference compound], the “Degree of cell proliferation” value in experiment [1] (3.1 ppm) worked out at 98%; in [2] (1.6 ppm, Table 4, combined use with ellagic acid), 98%. In experiment [1] (Mus musculus, 72 h, 3.1 ppm, 3 days, read-out: Degree of melanin inhibition), the inhibition at 3.1 ppm is 68%. The inhibition at 1.6 ppm in [2] (Mus musculus, B16, 1.6 ppm, Table 4, combined use with ellagic acid, read-out: Degree of melanin inhibition) is 17%.
As to `CCOC(=O)CC(C)CCC1=C(C)CCC2C(C)(C)CCCC12C` (centres unmarked) [Compound 3, labd-8-en-15-oic acid ethyl ester], the “Degree of melanin inhibition” value in experiment [1] (6.3 ppm, 3 days) was determined as 74%. In experiment [1] (6.3 ppm), the “Degree of cell proliferation” value was found to be 115%. The “Degree … of fibroblasts” value in experiment [12] (8.0 ppm) came to 134%.
`C=C1CCC2C(C)(C)CCCC2(C)C1CCC(C)CC(=O)O` (centres unmarked) [Compound 7, labd-8(17)-en-15-oic acid]: the “Degree of melanin inhibition” value was found to be 79% in experiment [1] (6.3 ppm, 3 days) and 30% in experiment [2] (setting [14]). Also, the “Degree of cell proliferation” value in experiment [1] (6.3 ppm) and in experiment [2] (setting [14]) was 111% throughout. Moreover, the “Degree of inhibition of mushroom tyrosinase” value in experiment [3] (25 ppm) was 0%. Further, the “Degree of inhibition of tyrosinase in B16 melanoma cells” value in experiment [4] worked out at 0%. Also, the “Degree … of fibroblasts” value in experiment [12] (8.0 ppm) is reported as 128%. Further, the MIC in experiment [5] is on record as 12.5 ppm; in experiment [6], 12.5 ppm; in experiment [7], 12.5 ppm; in experiment [8] it was 6.3 ppm; in [9] it was 12.5 ppm; in experiment [10] it was 6.3 ppm. This compound also came in with an MIC in [11] of 6.3 ppm.
As to `C=C1CCC2C(C)(C)CCCC2(C)C1CCC(C)CC(=O)OCC` (centres unmarked) [Compound 9, labd-8(17)-en-15-oic acid ethyl ester], in [1] (6.3 ppm, 3 days), the “Degree of melanin inhibition” value was determined as 61%. The “Degree of cell proliferation” value in experiment [1] (6.3 ppm) was 103%. The “Degree … of fibroblasts” value in experiment [12] (8.0 ppm) was determined as 127%.
As for `O=C(O)CO` [Glycolic acid, reference compound], the “Degree … of fibroblasts” value in [12] (4.0 ppm) came to 120%.
